Reference: article PMC8459971, “Evaluation of the hepatotoxicity of the novel GPR40 (FFAR1) agonist CPL207280 in the rat and monkey” (PLoS ONE, 2021)
“And” between values parts separate entries of the source, which are not always exact repeats. Equal values may be shown once.

Columns and labels:
MRP4 = biological target: T1, MRP4 (Homo sapiens, UniProt O15439); experiment: Vesicular transport inhibition assay, MRP4; conditions: for Accumulation (counts per minute; CPM) with AMP / Accumulation (counts per minute; CPM) with ATP: MRP4;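 further: membrane vesicles with MRP4 incubated with compound and probe substrate plus 4 mM ATP, or AMP as passive-diffusion background, vesicular substrate uptake read by liquid scintillation counting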;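 on Accumulation (counts per minute; CPM) with AMP: ATP 4 mM vs AMP background separates transporter uptake from diffusion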;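 on Accumulation (counts per minute; CPM) with ATP: ATP 4 mM vs AMP background separates transporter uptake from diffusion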
T1 sequence (O15439 1-1325): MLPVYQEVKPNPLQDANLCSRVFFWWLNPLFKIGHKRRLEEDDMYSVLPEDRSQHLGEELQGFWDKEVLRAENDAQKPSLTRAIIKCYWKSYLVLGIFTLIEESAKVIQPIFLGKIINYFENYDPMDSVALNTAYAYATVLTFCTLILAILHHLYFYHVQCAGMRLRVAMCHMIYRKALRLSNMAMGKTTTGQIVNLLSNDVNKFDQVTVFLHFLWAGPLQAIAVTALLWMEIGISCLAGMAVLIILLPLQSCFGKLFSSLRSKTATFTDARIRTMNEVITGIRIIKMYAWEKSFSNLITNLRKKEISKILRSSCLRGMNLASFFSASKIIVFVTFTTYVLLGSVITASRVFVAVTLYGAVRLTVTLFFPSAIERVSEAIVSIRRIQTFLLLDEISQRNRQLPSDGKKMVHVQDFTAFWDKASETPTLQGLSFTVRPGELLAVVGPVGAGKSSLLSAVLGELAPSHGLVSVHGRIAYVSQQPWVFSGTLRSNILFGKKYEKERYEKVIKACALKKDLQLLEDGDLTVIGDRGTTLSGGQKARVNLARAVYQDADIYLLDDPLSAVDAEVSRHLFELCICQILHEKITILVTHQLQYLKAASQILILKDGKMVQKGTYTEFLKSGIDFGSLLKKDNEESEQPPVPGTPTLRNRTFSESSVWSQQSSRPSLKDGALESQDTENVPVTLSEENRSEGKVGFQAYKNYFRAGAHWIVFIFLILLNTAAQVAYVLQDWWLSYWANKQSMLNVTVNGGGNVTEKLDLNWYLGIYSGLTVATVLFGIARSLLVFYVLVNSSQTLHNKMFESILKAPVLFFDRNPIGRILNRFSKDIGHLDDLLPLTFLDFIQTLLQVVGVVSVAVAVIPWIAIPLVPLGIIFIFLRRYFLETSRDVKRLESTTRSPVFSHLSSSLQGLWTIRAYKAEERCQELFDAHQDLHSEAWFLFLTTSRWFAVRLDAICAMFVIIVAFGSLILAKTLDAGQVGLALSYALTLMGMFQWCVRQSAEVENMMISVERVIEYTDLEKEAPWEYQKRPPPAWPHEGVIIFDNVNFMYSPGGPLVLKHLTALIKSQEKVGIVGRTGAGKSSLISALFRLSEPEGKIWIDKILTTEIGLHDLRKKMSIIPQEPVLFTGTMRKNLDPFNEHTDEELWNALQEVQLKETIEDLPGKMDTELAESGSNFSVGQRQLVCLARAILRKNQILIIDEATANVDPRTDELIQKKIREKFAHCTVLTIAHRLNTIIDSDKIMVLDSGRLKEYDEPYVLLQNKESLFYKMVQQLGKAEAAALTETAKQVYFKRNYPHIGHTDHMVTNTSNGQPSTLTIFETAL
Procedure: In the vesicular transport inhibition assay (for BSEP, MRP) compounds were incubated with membrane vesicle preparations and the probe substrate. Incubations were carried out in the presence of 4 mM ATP or AMP to distinguish between transporter-mediated uptake and passive diffusion into the vesicles. For MRP2 and MRP3, reactions were carried out in the presence of 2 mM glutathione. Compounds were added to the reaction mixture in 0.75 μL of solvent (1% of the final incubation volume). […] Reactions were initiated by the addition of 25 μL of 12 mM MgATP (or 12 mM AMP in assay buffer as a background control) and preincubated separately. Reactions were quenched by the addition of 200 μL of ice-cold washing buffer and immediate filtration via glass fiber filters mounted on a 96-well plate (filter plate). The filters were washed (5 × 200 μL of ice-cold washing buffer), dried, and the amount of substrate inside the filtered vesicles was determined by liquid scintillation counting.

OATP1A2 = OATP1A2 (Homo sapiens, UniProt P46721); experiment: Uptake transporter inhibition assay, OATP1A2; conditions: for Accumulation (counts per minute; CPM) HEK293FT-MOCK / Accumulation (counts per minute; CPM) HEK293FT-OATP1A2: OATP1A2;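 further: cellular uptake of a radiolabeled probe substrate in HBSS pH 7.4 at 37 °C with test compound or solvent, measured by liquid scintillation counting of cell lysates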
Procedure: For the uptake transporter inhibition assay, cells were washed twice with 100 μL of the appropriate buffer (HK, pH 7.4) for OATP1B1, followed by HBSS (pH 7.4) for (NTCP, OAT1, OAT2v1, OATP1A2, and OATP1B3). Uptake experiments were carried out at 37 ± 1°C in 50 μL of the respective buffer containing the probe substrate and the compound or solvent. […] After the experiment, cells were washed twice with 100 μL of cold appropriate buffer and lysed with 50 μL of 0.1 M NaOH. Radiolabeled probe substrate transport was determined by measuring an aliquot (35 μL) from each well for liquid scintillation counting.

in vivo = conditions: both, Wistar Han, rat, 600 mg/kg, 14 days
[1] = Stability in microsomes, mini pig; format: in vitro ADME; conditions: for average DEG [%]: minipig microsomes, with cofactors
Procedure: The final incubation volume was 500 μL. Two control compounds (verapamil and donepezil) were included for each microsomal species, along with the appropriate vehicle control. The reactions were terminated by transferring 50 μL of incubate to 100 μL methanol containing an internal standard (metoprolol) at appropriate time points (0, 10, 20, 40, 60, and 120 min for the test compound and 0, 5, 10, 20, 40, and 60 min for the control compounds). The termination plates were centrifuged at 4000 x g at 4°C for 30 min to precipitate the protein. The supernatants were then collected for analysis, and LC-MS/MS was used for detection purposes. The system consisted of an Acquity™ Binary Solvent Manager, Acquity™ 4-position heated column manager, 2777 Ultra High Pressure Autosampler, and a Xevo-TQ MS triple quadrupole mass spectrometer (Waters Ltd., Herts, UK). This process was carried out twice.

[2] = Viability assay, human primary hepatocytes, RT-glo, 48 h; format: cell-based; conditions: human, primary human hepatocytes, sheet Fig1 panel C (primary human hepatocytes), 48 h, replicates, read-out: viability, normalized to DMSO-treated controls
Procedure: (§1) To study the viability of the liver cells, 5 × 10^3 HepG2 (ATCC®) or human primary cells (ThermoFisher Scientific, USA) were seeded in 100 μL of DMEM media (Gibco; Thermo Fisher Scientific, USA) supplemented with fetal bovine serum (FBS)- in a 96-well plate. […] The experiments were performed in triplicates.

[3] = test system: human primary hepatocytes; experiment: as above; format: cell-based; conditions: 48 h
Procedure: as §1

[4] = Mini pig microsomes, mean n = 2

OATP1A2, sequence (P46721 whole entry): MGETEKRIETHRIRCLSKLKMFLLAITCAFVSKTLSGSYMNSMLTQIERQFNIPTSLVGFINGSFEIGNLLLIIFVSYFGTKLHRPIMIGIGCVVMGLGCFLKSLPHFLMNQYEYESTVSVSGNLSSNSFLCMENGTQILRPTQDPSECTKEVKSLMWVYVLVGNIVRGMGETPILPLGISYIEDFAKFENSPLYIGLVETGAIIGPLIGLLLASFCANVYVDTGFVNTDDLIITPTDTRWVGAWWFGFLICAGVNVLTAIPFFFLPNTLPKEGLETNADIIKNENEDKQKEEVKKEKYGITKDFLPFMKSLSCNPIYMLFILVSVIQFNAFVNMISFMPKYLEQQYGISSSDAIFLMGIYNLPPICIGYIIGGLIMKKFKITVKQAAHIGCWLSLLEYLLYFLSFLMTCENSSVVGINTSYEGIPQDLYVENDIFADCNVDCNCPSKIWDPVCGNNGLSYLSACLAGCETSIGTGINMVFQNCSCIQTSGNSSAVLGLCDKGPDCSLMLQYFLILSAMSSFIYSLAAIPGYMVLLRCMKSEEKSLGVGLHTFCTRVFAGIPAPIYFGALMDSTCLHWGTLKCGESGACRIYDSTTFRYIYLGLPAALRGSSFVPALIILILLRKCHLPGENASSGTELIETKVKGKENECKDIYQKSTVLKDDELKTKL

With `Cc1cc(OCCCS(C)(=O)=O)cc(C)c1-c1cccc(COc2ccc3c(c2)OC[C@H]3CC(=O)O)c1` [TAK-875, fasiglifam, reference compound] the IC50 (MRP4) was 6.9 µM, the “Accumulation (counts per minute; CPM) with AMP” value (MRP4; conc 0.07 µM) was 1270 CPM and 1266 CPM and the “Accumulation (counts per minute; CPM) with ATP” value (MRP4; conc 0.07 µM) was 5265 CPM and 5304 CPM. For the same compound, the “Accumulation (counts per minute; CPM) with AMP” value (MRP4; conc 0.21 µM) was 1193 CPM and 1241 CPM, the “Accumulation (counts per minute; CPM) with ATP” value (MRP4; conc 0.21 µM) was 5360 CPM and 5232 CPM and the “Accumulation (counts per minute; CPM) with AMP” value (MRP4; conc 0.62 µM) was 1249 CPM and 1265 CPM. The “Accumulation (counts per minute; CPM) with ATP” value (MRP4; conc 0.62 µM) was 5330 CPM and 5164 CPM, the “Accumulation (counts per minute; CPM) with AMP” value (MRP4; conc 16.67 µM) was 1183 CPM and 1161 CPM and the “Accumulation (counts per minute; CPM) with ATP” value (MRP4; conc 16.67 µM) was 1970 CPM and 2307 CPM. For the same compound, the “Accumulation (counts per minute; CPM) with AMP” value (MRP4; conc 50.00 µM) was 1007 CPM and 1016 CPM, the “Accumulation (counts per minute; CPM) with ATP” value (MRP4; conc 50.00 µM) was 1338 CPM and 1487 CPM and the IC50 (OATP1A2) was 10.6 µM. The “Accumulation (counts per minute; CPM) HEK293FT-MOCK” value (OATP1A2; conc 0.10 µM) was 142 CPM and 152 CPM, the “Accumulation (counts per minute; CPM) HEK293FT-OATP1A2” value (OATP1A2; conc 0.10 µM) was 10423 CPM and 10027 CPM and the “Accumulation (counts per minute; CPM) HEK293FT-MOCK” value (OATP1A2; conc 0.30 µM) was 182 CPM and 209 CPM. The “Accumulation (counts per minute; CPM) HEK293FT-OATP1A2” value (OATP1A2; conc 0.30 µM) was 8846 CPM and 9642 CPM, the “Accumulation (counts per minute; CPM) HEK293FT-MOCK” value (OATP1A2; conc 1.00 µM) was 191 CPM and 201 CPM and the “Accumulation (counts per minute; CPM) HEK293FT-OATP1A2” value (OATP1A2; conc 1.00 µM) was 7776 CPM and 7509 CPM. For the same compound, the “Accumulation (counts per minute; CPM) HEK293FT-MOCK” value (OATP1A2; conc 3.00 µM) was 170 CPM and 194 CPM, the “Accumulation (counts per minute; CPM) HEK293FT-OATP1A2” value (OATP1A2; conc 3.00 µM) was 6621 CPM and 5348 CPM and the “Accumulation (counts per minute; CPM) HEK293FT-MOCK” value (OATP1A2; conc 10.00 µM) was 165 CPM and 156 CPM. For the same compound, the “Accumulation (counts per minute; CPM) HEK293FT-OATP1A2” value (OATP1A2; conc 10.00 µM) was 5408 CPM and 5698 CPM, the “Accumulation (counts per minute; CPM) HEK293FT-MOCK” value (OATP1A2; conc 30.00 µM) was 149 CPM and 181 CPM and the “Accumulation (counts per minute; CPM) HEK293FT-OATP1A2” value (OATP1A2; conc 30.00 µM) was 4731 CPM and 4729 CPM. For the same compound, the “Accumulation (counts per minute; CPM) HEK293FT-MOCK” value (OATP1A2; conc 100.00 µM) was 205 CPM and 204 CPM, the “Accumulation (counts per minute; CPM) HEK293FT-OATP1A2” value (OATP1A2; conc 100.00 µM) was 2008 CPM and 2199 CPM and the “exposure exceeding the CPL207280 exposure” value (in vivo) was 200%. The half-life at 3 μM [1, 4] was 15 min, the microsomal CLint at 3 μM [1, 4] was 91.1 µL/min/mg and the “average DEG [%]” value ([1]; 0 min) was 100.0%. The “average DEG [%]” value ([1]; 20 min) was 29.4%, the “average DEG [%]” value ([1]; 40 min) was 13.1% and the “average DEG [%]” value ([1]; 60 min) was 5.83%. It also gave a viability at 48 h, 0.78 µM ([2]; 0.78 uM) of 117%, a viability at 48 h, 3.125 µM ([2]; 3.125 uM) of 113% and a viability at 48 h, 6.25 µM ([2]; 6.25 uM) of 89.7%. It also gave a viability at 48 h, 25 µM ([2]; 25 uM) of 64.7%, a viability at 48 h, 50 µM ([2]; 50 uM) of 34.1% and a viability at 48 h, 100 µM ([2]; 100 uM) of 4.16%. For the same compound, the viability ([3]; human primary hepatocytes, concentrations up to 10 μM) was “Neither compound exhibited altered viability” and the effect on growth ([3]; primary cells, 100 μM) was “abolished the growth”.
